Experimental data from patent US20150064221A1, “COMPOUNDS HAVING IMMUNOMUDULATOR ACTIVITY” (priority 2012, published 2015).
“Also recorded” adds a separate entry of the source.

Key:
[1] = Plasma pharmacokinetics after intraperitoneal administration; format: in vivo; conditions: mouse, ip, mice, i.p. 20 mg/kg
Method: To determine the pharmacokinetic properties of VGX-1027, drug concentrations were analyzed in the plasma of mice. The drug was measured post intraperitoneum administration at 20 mg/kg […] in 500 mM Na2HPO4, which is a therapeutically active concentration. […] Based on the linear part of the pharmacokinetic profile, the t1/2 of VGX-1027 is approximately 90 minutes.

[2] = test system: 30 primary molecular targets; experiment: Radioligand binding assay (MDS Pharma HitProfiling Screen); conditions: 30 targets, concentrations up to 10 μM; significant = ≧50% inhibition or stimulation
Method: VGX-1027 was negative in a radioligand binding assay (MDS Pharma HitProfiling Screen) that tested 30 primary molecular targets at concentrations up to 10 μM. No significant response (≧50% inhibition or stimulation for Biochemical assays) were noted.

[3] = test system: enterobacterial antigen-reactive CD4+CD25− T cells; conditions: in vitro; Mangano et al. 2008; cited from earlier work
[4] = Twenty-eight day toxicology study in dogs; format: in vivo; conditions: 28 days, highest dose 100 mg/kg/day
Method: Twenty-eight day toxicology studies were performed in both mice and dogs with increasing concentration to achieve toxicity. The following are the results of those studies.

DNBS-induced colitis [5] = experiment: DNB/DNBS-induced colitis; format: in vivo, mice
Method: Mice were injected with DNBS into the rectum and administered VGX-1027 an hour later; 4 days after, the mice were sacrificed, and the colons were isolated and analyzed. Variation in total body weight (A), stool consistency (B), macroscopic score (C), necrotic areas 9D), colon weight (E), and amount of cytokines in colon homogenate were determined Macroscopic score was determined by the following criteria: 0=no damage; 1=localized hyperaemia and/or oedema; 2=linear ulcer<half of the width of the colon; 3=linear ulcer>half the width of the colon; 4=circular ulcer<1 cm; 5=circular ulcer between 1 and 2 cm; 6=circular ulcer>2 cm.
Within 5 days after challenge with dinitrobenzene sulfonic acid (DNB), mice develop colitis. The disease severity is evaluated based on a macroscopic score. The vehicle-treated control mice and untreated mice developed colitis with a predictable and progressive increase in inflammation and body weight loss.
The colons of the control mice and of the VGX-1027 treated mice were removed, sectioned, fixed, and stained with hematoxylin and eosin. […] The tissue myeloperoxidase activity is a well established marker to assess the inflammatory cell (mainly neutrophils) infiltration. […] We counted an average of 8.9±1.2 (means±SD) cells/high power field of DNB-induced animals, whereas there were only 3.37±0.8 cells/high-power field in DNB-induced animals pretreated with VGX-1027 (p<0.0001).
DNBS challenge of mice induced clinical features of colitis including weight loss, diarrhea, intestinal damage, and necrotic regions (FIG. 11a-d). […] An increase in the weight of the colon is an indirect measure of increased thickness of the walls due to inflammation.

SEB-induced lethal shock = test system: SEB-induced lethal shock; set-up: species or system mice; conditions: mouse, in vivo
Purified CD4 T cells = experiment: Th17 T cell development from purified CD4 T cells; format: cell-based; conditions: 10 mM
Method: Purified CD4 T cells (CD3^+ CD4^+ CD45RA^+ CD25^− HLA−DR^−) were incubated with 10 μg/ml of IL-2, 10 ng/mL of IL-1β, 10 ng/ml of IL-23, 1 ug/ml of anti-IL-4, 1 ug/mL of anti-IFNγ and anti-CD3/CD28 activation beads at a ratio of 1 bead per cell plus TGF-β (1 ng/mL). On day 6, the cells were incubated in the presence of 50 ng/ml of PMA and 500 ng/ml of ionomycin for 5 hours. The cells were analyzed for intracellular staining of IL-17A and IFNγ. (A) FACS analysis of CD4+ and IL-17+ cells with the percentage shown in the upper right quadrant. (B) Mean Fluorescent Intensity (MFI) of IL-17+ T cells. (C) Concentration of IL-17 in the media. VGX-1027 concentration was 10 mM.
Although inhibition of Th17-promoting cytokine production from DCs is likely to contribute to the decrease of Th17 T cell development, the potential limitation with this mechanism is that other cells may be compensating for the production of Th17-promoting cytokines. Therefore, the direct effect of VGX-1027 was tested on the differentiation of naïve CD4 T cells into Th17 T cells. In vitro generation of Th17 T cells requires TGF-β, IL-1β, IL-6, and either IL-21 or IL-23. Th17 T cells was assessed with purified CD4 T cells (CD3+ CD4+ CD45RA+ CD25− HLA−DR−) with or without VGX-1027.

COX-2 = COX-2 (Homo sapiens, UniProt P35354); experiment: COX-2 activity; format: biochemical
Chain of COX-2 (P35354 18-604): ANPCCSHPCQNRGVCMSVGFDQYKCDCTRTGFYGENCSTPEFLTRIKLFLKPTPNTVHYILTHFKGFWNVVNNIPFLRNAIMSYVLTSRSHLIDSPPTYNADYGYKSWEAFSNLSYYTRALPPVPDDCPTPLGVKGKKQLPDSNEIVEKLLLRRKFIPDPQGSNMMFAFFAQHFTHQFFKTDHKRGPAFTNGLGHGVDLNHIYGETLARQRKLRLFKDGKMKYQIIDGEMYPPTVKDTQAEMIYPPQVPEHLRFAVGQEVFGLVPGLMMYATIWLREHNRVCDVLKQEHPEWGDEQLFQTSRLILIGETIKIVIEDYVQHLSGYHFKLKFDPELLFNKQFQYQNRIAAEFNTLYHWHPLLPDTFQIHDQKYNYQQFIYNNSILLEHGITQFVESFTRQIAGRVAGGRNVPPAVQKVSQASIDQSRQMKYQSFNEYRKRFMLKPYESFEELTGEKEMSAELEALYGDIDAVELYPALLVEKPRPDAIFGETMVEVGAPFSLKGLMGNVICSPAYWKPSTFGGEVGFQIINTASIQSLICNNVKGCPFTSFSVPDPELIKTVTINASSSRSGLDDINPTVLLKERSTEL
Method: The highest plasma concentrations generally occurred in 1-2 hours. […] The highest level of inhibition was ˜35% for 2C19 at a 30 μM concentration. […] Lastly, VGX-1027 is stable in human liver S9 fractions (with phase 1 and 2 cofactors) with t1/2>90 minutes, which indicates a low likelihood of metabolism in the liver.

DNBS-induced colitis [6] = conditions: DNBS model; Mangano et al. 2008; cited from earlier work
[7] = DNBS, treatment from 1 hour after DNBS

## O=C(O)CC1CC(c2ccccc2)=NO1 (stereo not drawn) [VGX-1027, 3-phenyl-4,5-dihydro-5-isoxazoleacetic acid]
[1]; 20 mg/kg
  Tmax: 2 h
[1]; after 6 hours post injection, read-out: plasma drug concentration
  concentration at 6 h: < 10 µg/mL
[1]; by 30 minutes post injection, read-out: plasma drug concentration
  concentration at 30 min: > 80 µg/mL
[1]; linear part of the profile
  half-life: ~1.5 h
[1]; read-out: peak plasma concentration (Cmax)
  Cmax: 130 µg/mL
[2]
  radioligand binding result: negative
[3]
  proliferation of enterobacterial antigen-reactive CD4+CD25− T cells: inhibits
[4]
  early deaths: 3
DNBS-induced colitis [5]; DNB colitis
  increase in colon weight: significantly lower
  weight loss: significant reduction
DNBS-induced colitis [5]; DNB colitis, treated before induction
  tissue damage (histology): significantly reduced
DNBS-induced colitis [5]; DNB, p<0.001
  progression of inflammatory colitis: significantly attenuated
DNBS-induced colitis [5]; DNB-induced animals pretreated, means±SD
  neutrophils infiltrating: 3.37±0.8 cells/high-power field
DNBS-induced colitis [5]; [7]
  IL-18 in colon homogenates: decreased amounts
  TNF-α in colon homogenates: decreased amounts
  colon weight: decreased
DNBS-induced colitis [5]; DNBS, treatment from 1 hour after until 4 days after DNBS
  features of colitis / degree of protection: markedly improved; also recorded: comparable to that afforded by 1 mg/kg of dexamethasone
DNBS-induced colitis [5]; colon tissue, 5 days after induction, p<0.0001
  inflammatory cell infiltration (myeloperoxidase activity): significant reduction
SEB-induced lethal shock
  symptomology associated with SEB challenge: attenuated
SEB-induced lethal shock; ip
  survival: 50%
Purified CD4 T cells
  IL-17 expressed in a Th17 T cell (MFI): decrease
  IL-17 in the culture media: decrease
COX-2
  inhibition of COX-2 activity: no significant inhibition
DNBS-induced colitis [6]
  colonic production of proinflammatory cytokines (IL-1β, TNF-α, IL-12p70, IFN-γ): reduced colonic production
